From patent publication EP0338042B1, “COMPOSITION AND METHOD FOR TREATING HEPATITIS VIRUS INFECTIONS USING 1-(2'-DEOXY-2'-FLUORO-BETA-D-ARABINOFURANOSYL)-5-ETHYLURACIL” (priority 1987, dated 1989)
In brackets after ≈: the same amount, converted by molar mass. Read-outs that look alike come from different tables or passages of the source.

Columns and labels:
[1] = test system: woodchuck hepatitis virus (WHV); assay: Inhibition of WHV replication in chronically infected woodchucks (DNA polymerase activity); type: in vivo, woodchucks (Marmota monax); conditions: for WHV DNA polymerase levels / WHV DNA polymerase levels after cessation of drug administration: other antivirals, dose not given; for virus replication levels: dosages similar to FMAU (2-4 mg/kg per day); for virus replication levels after cessation of treatment: dosages similar to FMAU, soon after cessation
Protocol: All woodchucks bearing chronic active hepatitis virus (Hantz, supra) were administered FMAU twice daily by interperitoneal injections of FMAU in the following dosages:
Studies were then undertaken to evaluate FMAU and FEAU in this animal model using woodchucks naturally chronically-infected with woodchuck hepatitis virus (24). It was assumed that these nucleosides would be anabolized to their nucleoside triphosphates within the animal. WHV replication was measured periodically by the endogenous DNA polymerase activity and by the detection of WHV DNA by the dot-blot hybridization assay. Three different dosages of FMAU and FEAU were investigated. FMAU at 2 mg/kg/day x 5, (given intraperitoneally TABLE VIII
In accordance with the procedures of Example 2, the FEAU inhibition of WHV replication was further studied at different doses administered orally to woodchucks through stomach tubes. Two groups of woodchucks with different initial WHV replication values were examined.
Seven woodchucks with high WHV replication were tested. High replication was defined as over 1000 counts per minute of DNA polymerase activity, and the mean replication was 1600.
Seven woodchucks with low WHV replication were tested. Low replication was defined as lower than 1000 counts per minute of DNA polymerase activity, and the mean replication was 600-800.

HBV DNA polymerase [2] = molecular target: T1, HBV DNA polymerase (Hepatitis B virus genotype D subtype ayw, UniProt P03156); assay: DNA polymerase assay with purified virus particles; type: biochemical; conditions: for nature of inhibition (Lineweaver-Burk plots): ACVTP, FIACTP, BVdUTP versus dGTP, dCTP, dTTP respectively, similar for WHV DNA polymerase; for IC50: concentration of inhibitor giving a 50% inhibition of DNA polymerase activity, read-out: ID₅₀ HBV DNA POLYMERASE; for ID₅₀ compared with FIACTP (times more): stated for HBV and WHV DNA polymerases; for relative efficiency as inhibitor of HBV DNA polymerase: excess of nucleotides, similar results with WHV DNA polymerase
T1 construct: from tissue; host or cells: serum of an immunosuppressed, HBsAg-positive patient; virions purified on sucrose and CsCl gradients
T1 sequence (P03156 whole entry): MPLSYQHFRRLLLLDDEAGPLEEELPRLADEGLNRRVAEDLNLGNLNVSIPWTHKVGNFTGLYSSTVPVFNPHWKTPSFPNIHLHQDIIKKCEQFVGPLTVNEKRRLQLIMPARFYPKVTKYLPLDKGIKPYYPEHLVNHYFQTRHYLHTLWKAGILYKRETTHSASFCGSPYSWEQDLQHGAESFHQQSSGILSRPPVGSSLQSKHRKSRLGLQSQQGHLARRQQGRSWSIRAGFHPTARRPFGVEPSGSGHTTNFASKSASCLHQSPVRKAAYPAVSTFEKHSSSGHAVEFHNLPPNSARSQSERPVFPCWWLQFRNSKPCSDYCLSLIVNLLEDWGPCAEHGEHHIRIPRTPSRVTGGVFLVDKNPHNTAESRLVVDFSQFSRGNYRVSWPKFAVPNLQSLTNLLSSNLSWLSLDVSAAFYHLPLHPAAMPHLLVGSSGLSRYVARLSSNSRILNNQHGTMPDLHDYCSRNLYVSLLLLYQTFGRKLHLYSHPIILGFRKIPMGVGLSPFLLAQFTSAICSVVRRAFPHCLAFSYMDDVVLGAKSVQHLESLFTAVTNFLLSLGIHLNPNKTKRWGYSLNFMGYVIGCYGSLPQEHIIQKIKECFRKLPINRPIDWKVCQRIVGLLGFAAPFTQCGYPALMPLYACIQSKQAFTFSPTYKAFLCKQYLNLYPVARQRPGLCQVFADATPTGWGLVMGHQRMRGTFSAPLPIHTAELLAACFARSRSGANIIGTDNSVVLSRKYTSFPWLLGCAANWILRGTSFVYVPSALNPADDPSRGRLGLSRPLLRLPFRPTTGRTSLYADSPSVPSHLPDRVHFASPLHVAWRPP
Source text: (§1) HBV particles containing DNA polymerase activity were purified from the serum of an immunosuppressed patient, positive for HBsAG. WHV was obtained from a serum pool of five woodchucks (Marmota monax), chronic carriers of the virus. The woodchucks initially imported from Pennsylvania belonged to a colony followed for over one year by serological tests as reported in Hantz et al., J. Virol. Metho. 7: 45-55 (1983). Virus was purified by centrifugation on sucrose and isopycnic CsCl gradients.
(§2) DNA polymerase was assayed as described by Kaplan et al., J. Virol. 12: 995 (1973) with minor modification. The assay was performed in a 50 µl reaction mixture containing 50 mM Tris-HCl pH 7.5, 40 mM MgCl₂, 60 mM NH₄Cl, 100 µM each dATP, dCTP and dGTP, 0.2-0.7 µM [³H] dTTP (30 Ci/mmol), 10 mM 2-mercaptoethanol, 0.5% Nonidet P-40 and enzyme. The reaction was started by addition of the virus particles with 2-mercaptoethanol and Nonidet P 40. Incubation was at 37°C for 1 hour. Acid insoluble radioactive material was collected on a glass fiber filter (GF/C Whatman). Filters were washed 5 times with cold 5% trichloracetic acid containing 10 mM sodium pyrophosphate, then with 95% ethanol. Radioactivity of the dried filter was measured in a liquid scintillation counter.
(§3) The relative sensitivities of both enzymes to ACVTP, FIACTP and BVdUTP were compared using an excess of nucleotides. For each inhibitor, the concentration of the corresponding radioactive triphosphate was maintained at 2 to 3 times the Km value while the remaining nucleotides were in great excess (50 µM).

WHV DNA polymerase = molecular target: T2, WHV DNA polymerase (Woodchuck hepatitis B virus, UniProt P03160); assay: DNA polymerase assay with purified virus particles; type: biochemical; conditions: read-out: ID₅₀ WHV DNA POLYMERASE
T2 construct: The reaction was started by addition of the virus particles with 2-mercaptoethanol and Nonidet P 40; from tissue; host or cells: serum pool of five chronically infected woodchucks (Marmota monax); virions purified on sucrose and CsCl gradients
T2 sequence (P03160 whole entry): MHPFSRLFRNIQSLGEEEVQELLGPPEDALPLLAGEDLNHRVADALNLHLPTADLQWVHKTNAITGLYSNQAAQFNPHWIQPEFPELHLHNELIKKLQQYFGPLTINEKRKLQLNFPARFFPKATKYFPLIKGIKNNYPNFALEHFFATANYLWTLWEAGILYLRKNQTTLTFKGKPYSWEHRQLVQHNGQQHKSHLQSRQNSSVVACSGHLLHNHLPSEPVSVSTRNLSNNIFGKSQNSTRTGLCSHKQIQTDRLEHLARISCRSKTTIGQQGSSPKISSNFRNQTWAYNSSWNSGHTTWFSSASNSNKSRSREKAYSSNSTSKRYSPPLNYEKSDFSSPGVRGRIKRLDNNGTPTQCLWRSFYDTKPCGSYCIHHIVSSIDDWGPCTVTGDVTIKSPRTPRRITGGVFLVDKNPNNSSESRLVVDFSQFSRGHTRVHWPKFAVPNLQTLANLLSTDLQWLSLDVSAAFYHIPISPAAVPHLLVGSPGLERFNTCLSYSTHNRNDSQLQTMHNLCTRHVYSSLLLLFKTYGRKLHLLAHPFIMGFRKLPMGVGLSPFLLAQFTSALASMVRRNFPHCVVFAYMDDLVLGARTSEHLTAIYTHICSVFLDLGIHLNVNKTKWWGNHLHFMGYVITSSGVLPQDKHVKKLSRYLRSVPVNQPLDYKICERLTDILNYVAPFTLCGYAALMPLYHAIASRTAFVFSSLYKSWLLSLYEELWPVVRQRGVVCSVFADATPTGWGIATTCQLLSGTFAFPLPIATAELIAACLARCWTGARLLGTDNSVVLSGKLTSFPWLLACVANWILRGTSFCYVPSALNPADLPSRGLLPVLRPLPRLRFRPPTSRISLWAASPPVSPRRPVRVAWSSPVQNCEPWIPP
Source text: as §1, §2, §3

HBV DNA polymerase [3] = molecular target: T1, HBV DNA polymerase; assay: Time course of DNA synthesis with triphosphate analogs in place of the natural substrate; type: biochemical; conditions: for DNA synthesis with analog substituted for the natural substrate: ara-TTP for dTTP, ara-CTP for dCTP, ACVTP for dGTP; for HBV DNA synthesis after addition of the normal substrate: reaction started with analog instead of normal substrate (ACVTP 5 µM), normal substrate (100 µM dGTP) added after 120 minutes
Protocol: as §2
To determine the effect of the three analogs on viral DNA synthesis, a time course experiment was performed with HBV DNA polymerase. [³H] dATP was used as the labeled substrate. With all four nucleoside triphosphate substrates, the reaction was linear up to 60 mn. […] The substitution of dTTP by BVdUTP permitted the viral DNA synthesis up to 46% of the control after 3 hours of reaction. This value increased to 67% of the optimal activity after 4 h of reaction.
BVdUTP was the most efficient alternate substrate for both enzymes. The DNA synthesized with BVdUTP as alternate substrate was analyzed by agarose gel electrophoresis. Only incomplete filling of the single-stranded region of HBV or WHV DNA was obtained with BVdUTP.
The effect of ACVTP on HBV DNA synthesis was also studied in a time course experiment. [³H] dTTP was the labeled substrate. The reaction was initiated without dGTP or with 5 µm ACVTP instead of dGTP. Under these conditions, no incorporation of [³H] dTMP could be measured. After 120 minutes of reaction, 100 µM of dGTP was added. In the assay without dGTP only, the addition of dGTP increased DNA synthesis as expected. […] By comparison, when the reaction was started with the same proportion of ACVTP (5 µM) and dGTP (100 µM) a significant DNA synthesis was observed. Similar experiments were carried out with ara-ATP and ara-CTP.

HSV-2 (STRAIN G) = conditions: cited from earlier work; for MDD: twice a day for 4 days from 5 hr after inoculation, calculated on day 21; for % SURVIVORS: twice a day for 4 days; for %WT GAIN ON DAY 7 / %WT GAIN ON DAY 14 / %WT GAIN ON DAY 21 / %WT GAIN ON DAY 30: compared to day 1
physchem = assay: physchem
Source text: Ongoing testing of woodchucks bearing hepatitis virus is being conducted with the following additional pyrimidine nucleoside compounds: FIAC (2′-fluoro-2′-deoxy-arabinosyl-5-iodoocytosine) and FIAU (2′-fluoro-2′-deoxy-arabinosyl-5-iodouracil). As with FMAU, water is the preferred carrier.
If necessary, the solubility of the compounds FMAU, FIAC, and FIAU may be increased by adding acid or base to the aqueous solvent.

[4] = concentration of inhibitor giving a 50% inhibition of DNA polymerase activity

Nc1ncc2ncn(COCCO)c2n1 [6-deoxy-acyclovir]
WHV DNA polymerase levels [1]: diminished | WHV DNA polymerase levels after cessation of drug administration [1]: rebounded to pretreatment levels

Nc1nc2c(ncn2COCCOP(=O)(O)OP(=O)(O)OP(=O)(O)O)c(=O)[nH]1 [ACVTP]
nature of inhibition (Lineweaver-Burk plots) (HBV DNA polymerase [2]): competitive | IC50 (HBV DNA polymerase [2]): 900 nM | ID₅₀ compared with FIACTP (times more) (HBV DNA polymerase [2]): 18 times | IC50 (WHV DNA polymerase; [4]): 700 nM | DNA synthesis with analog substituted for the natural substrate (HBV DNA polymerase [3]): did not increase the polymerization process | HBV DNA synthesis after addition of the normal substrate (HBV DNA polymerase [3]): no DNA synthesis was observed

O=c1[nH]c(=O)n([C@H]2C[C@H](O)[C@@H](COP(=O)(O)OP(=O)(O)OP(=O)(O)O)O2)cc1/C=C/Br [BVdUTP]
nature of inhibition (Lineweaver-Burk plots) (HBV DNA polymerase [2]): competitive | IC50 (HBV DNA polymerase [2]): 250 nM | ID₅₀ compared with FIACTP (times more) (HBV DNA polymerase [2]): 5 times | IC50 (WHV DNA polymerase; [4]): 300 nM

Nc1nc2c(ncn2COC(CO)CO)c(=O)[nH]1 [DHPG]
WHV DNA polymerase levels [1]: diminished | WHV DNA polymerase levels after cessation of drug administration [1]: rebounded to pretreatment levels

CCc1cn([C@H]2C[C@H](O)[C@@H](CO)O2)c(=O)[nH]c1=O [EDU, 5-ethyl-2′-deoxyuridine, reference compound]
MDD (HSV-2 (STRAIN G); EDU 800 MG/KG/DAY): 7.6 | % SURVIVORS (HSV-2 (STRAIN G); EDU 800 MG/KG/DAY): 13% | %WT GAIN ON DAY 7 (HSV-2 (STRAIN G); EDU 800 MG/KG/DAY): -10% | %WT GAIN ON DAY 14 (HSV-2 (STRAIN G); EDU 800 MG/KG/DAY): -6% | %WT GAIN ON DAY 21 (HSV-2 (STRAIN G); EDU 800 MG/KG/DAY): 2% | %WT GAIN ON DAY 30 (HSV-2 (STRAIN G); EDU 800 MG/KG/DAY): 6% | MDD (HSV-2 (STRAIN G); EDU 1000 MG/KG/DAY): 8.6 | % SURVIVORS (HSV-2 (STRAIN G); EDU 1000 MG/KG/DAY): 33% | %WT GAIN ON DAY 7 (HSV-2 (STRAIN G); EDU 1000 MG/KG/DAY): 3% | %WT GAIN ON DAY 14 (HSV-2 (STRAIN G); EDU 1000 MG/KG/DAY): 13% | %WT GAIN ON DAY 21 (HSV-2 (STRAIN G); EDU 1000 MG/KG/DAY): 34% | %WT GAIN ON DAY 30 (HSV-2 (STRAIN G); EDU 1000 MG/KG/DAY): 43%

Nc1nc(=O)n([C@@H]2O[C@H](CO)[C@@H](O)[C@@H]2F)cc1I [FIAC, 1-(2'-deoxy-2'-fluoro-beta-D-arabinofuranosyl)-5-iodocytosine]
solubility (physchem; aqueous hydrochloric acid): ~250 mg/mL (≈ 674 mM) | toxicity (previous results) ([1]; woodchucks, previous results): lethal toxicity

Nc1nc(=O)n([C@@H]2O[C@H](COP(=O)(O)OP(=O)(O)OP(=O)(O)O)[C@@H](O)[C@@H]2F)cc1I [FIACTP]
nature of inhibition (Lineweaver-Burk plots) (HBV DNA polymerase [2]): competitive | relative efficiency as inhibitor of HBV DNA polymerase (HBV DNA polymerase [2]): most efficient inhibitor | IC50 (WHV DNA polymerase; [4]): 100 nM

O=c1[nH]c(=O)n([C@@H]2O[C@H](CO)[C@@H](O)[C@@H]2F)cc1I [FIAU, 2′-fluoro-2′-deoxy-arabinosyl-5-iodouracil]
solubility (physchem): increased many fold

Cc1cn([C@@H]2O[C@H](COP(=O)(O)OP(=O)(O)OP(=O)(O)O)[C@@H](O)[C@@H]2F)c(=O)[nH]c1=O [FMAU-TP]
IC50 (HBV DNA polymerase [2]): 25 nM | IC50 (WHV DNA polymerase): 50 nM

Nc1nc2c(ncn2COCCO)c(=O)[nH]1 [acyclovir]
virus replication levels [1]: diminished | virus replication levels after cessation of treatment [1]: rebounded to pretreatment levels

Nc1ncnc2c1ncn2[C@@H]1O[C@H](COP(=O)(O)O)[C@@H](O)[C@@H]1O [ara-AMP]
virus replication levels [1]: diminished | virus replication levels after cessation of treatment [1]: rebounded to pretreatment levels | WHV DNA polymerase levels [1]: diminished | WHV DNA polymerase levels after cessation of drug administration [1]: rebounded to pretreatment levels

Nc1ncnc2c1ncn2[C@@H]1O[C@H](COP(=O)(O)OP(=O)(O)OP(=O)(O)O)[C@@H](O)[C@@H]1O [ara-ATP]
HBV DNA synthesis after addition of the normal substrate (HBV DNA polymerase [3]): increased the HBV DNA synthesis

Nc1ccn([C@@H]2O[C@H](COP(=O)(O)OP(=O)(O)OP(=O)(O)O)[C@@H](O)[C@@H]2O)c(=O)n1 [ara-CTP]
IC50 (HBV DNA polymerase [2]): 1100 nM | relative efficiency as inhibitor of HBV DNA polymerase (HBV DNA polymerase [2]): least efficient | IC50 (WHV DNA polymerase; [4]): 1200 nM | DNA synthesis with analog substituted for the natural substrate (HBV DNA polymerase [3]): no significant incorporation | HBV DNA synthesis after addition of the normal substrate (HBV DNA polymerase [3]): increased the HBV DNA synthesis

Cc1cn([C@@H]2O[C@H](COP(=O)(O)OP(=O)(O)OP(=O)(O)O)[C@@H](O)[C@@H]2O)c(=O)[nH]c1=O [ara-TTP]
IC50 (HBV DNA polymerase [2]): 300 nM | IC50 (WHV DNA polymerase; [4]): 400 nM | DNA synthesis with analog substituted for the natural substrate (HBV DNA polymerase [3]): no significant DNA synthesis
